Assay results reported in patent publication US20210230616A1, “METHODS FOR ISOLATING CELLS WITHOUT THE USE OF TRANSGENIC MARKER SEQUENCES” (INSTITUTE OF GENETICS AND DEVELOPMENTAL BIOLOGY, CHINESE …, priority 2017, published 2021).

Columns and labels:
Type in all cases: in vivo
wild-type plants [1] = assay: Nicosulfuron selection medium, wild-type wheat plants
Description: 30 days later, twelve seedlings survived, and 9 of them had base mutations at the TaALS-S2 site. The efficiency of selecting the ALS-S2 site mutant plants using nicosulfuron selection medium was 75% (9/12).

wild-type plants [2] = assay: Nicosulfuron selection medium, wild-type rice plants; settings: 0.0065 PPM Nicosulfuron
Protocol: The pH-nCas9-PBE-OsALS-S1/S2 binary vector was transformed into Agrobacterium strain AGL1 by electroporation. Agrobacterium-mediated transformation, tissue culture and regeneration in rice cultivar Zhonghua 11 were performed according to Shan et al. (Shan, Q. et al. Targeted genome modification of crop plants using a CRISPR-Cas system. Nat. Biotechnol. 31, 686-688 (2013)). Hygromycin selection (50 μg/ml) was used during tissue culture. (This experiment is a proof of concept, so the plants were selected with hygromycin first, then by nicosulfuron. The objective was to first obtain transgenic plants and then screen for herbicide resistance). […] Four seedlings survived after 14 days. DNA was extracted from the four seedlings. The ALS gene was amplified by PCR, sequenced to determine the mutant genotype.

[3] = tested on: mutant plant with heterozygous P165L substitution on ZmALS2; assay: Herbicide resistance of ZmALS-P165 edited corn plant
Description: To establish the co-editing system in corn, acetolactate synthase site corresponding TaALS-P173 was targeted to test the herbicide resistance. It has been reported single edited allele on ZmALS2 could confer plants herbicide resistance (Svitashev et al, 2016). So the binary vector targeting ZmALS-P165 was transformed to immature embryos (ZmALS-P165 site is conserved in both ZmALS1 and ZmALS2). Three independent mutants were obtained from the regenerated plants and their genotypes are same.

| Compound | survival of wild-type plants on selection medium (wild-type plants [1]) | survival of wild-type plants on selection medium (wild-type plants [2]) | resistance of mutant corn plant to the herbicide [3] |
| --- | --- | --- | --- |
| COc1cc(OC)nc(NC(=O)NS(=O)(=O)c2ncccc2C(=O)N(C)C)n1 [Nicosulfuron] | unable to survive | cannot survive |  |
| COC(=O)c1ccc(CNS(C)(=O)=O)cc1S(=O)(=O)NC(=O)Nc1nc(OC)cc(OC)n1 [Mesosulfuron-methyl] |  |  | showed resistance |
